Results reported in patent US20050037446A1, “Agents that recognize src when phosphorylated at serine 17” (priority 2001, published 2005).

Columns and labels:
Raf-1 and Rap1 = experiment: Association of Raf-1 with His-Rap1 (Ni-NTA pull-down), NIH3T3 cells; type: cell-based; settings: Forskolin-stimulated NIH3T3 cells
Experimental: NIH3T3 cells were transfected using Lipofectamine (see EXAMPLE 1) with polyhistidine-tagged Rap1 along with CBR or Cb1-ct (see EXAMPLE 2) as previously described (Schmitt and Stork, Mol. Cell. Biol. 21:3671-83, 2001; Schmitt and Stork, J. Biol. Chem. 275:25342-50,2000). Cells were left untreated or stimulated with Forskolin, as described in EXAMPLE 1. Subsequently, cells were lysed in ice-cold buffer containing 1% NP40, 10 mM Tris, pH 8.0, 20 mM NaCl, 30 mM MgCl2, 1 mM PMSF, and 0.5 mg/ml aprotinin and supernatants prepared by low speed centrifugation. Transfected His-Rap1 proteins were precipitated from supernatants containing equal amounts of protein using Ni-NTA agarose (Qiagen Inc., Chatswoth, Calif.) and washed with 20 mM imidazole in lysis buffer and eluted with 500 mM imidazole and 5 mM EDTA in phosphate-buffered saline. The eluates containing His-Rap1 proteins were separated on SDS-PAGE, blotted onto PVDF membranes, and Raf-1 proteins detected by Western blotting using anti-Raf-1 antibodies (Santa Cruz Biotechnology Inc.).

ERK1/2 = ERK1/2 phosphorylation Western blot, NIH3T3 cells; type: cell-based; settings: inhibition of SFKs
Experimental: To determine the role of SFKs in cAW's antagonism of extracellular signal regulated kinase (ERK) activation, the following methods were used. NIH3T3 cells were incubated in the presence or absence of either H89 or PP2 for 20 minutes, pretreated with Forskolin for five minutes, and then stimulated with 100 ng/ml, epidermal growth factor (EGF, Sigma), or 100 ng/ml platelet-derived growth factor (PDGF, Sigma) for five minutes, as described in EXAMPLE 1. Cell lysates were analyzed by Western blot for phosphorylation of endogenous ERK1/2 or total ERK2. To detect phosphorylation of endogenous ERK1/2, phosphorylation-specific ERK antibodies (PERK) that recognize phosphorylated ERK1 (pERK1) and ERK2 (pERK2), at residues threonine 183 and tyrosine 185 were used (New England Biolabs, Beverly, Mass.).

Rap1 = Rap1 activation assay in Src++ and SYF fibroblasts; type: cell-based, mouse
Experimental: The Rap1 activation affinity assay was performed as follows. A GST fusion protein of the Rap1-binding domain of RalGDS (GST-RalGDS, Dr. Bos, Utrecht University, The Netherlands) was expressed in E. coli following induction by isopropyl-1thio-β-D-galactopyranoside. Active Rap1 was isolated as previously described (Franke et al., EMBO J. 16:252-9, 1997). Briefly, equivalent amounts of supernatants (500 μg) were incubated with GST-RalGDS-Rap1 binding domain coupled to glutathione beads. Following a one hour incubation at 4° C., beads were pelleted and rinsed threes times with ice-cold lysis buffer. The protein was eluted from the beads using 2× Laemmli buffer and applied to a 12% SDS-polyacrylamide gel. […] Proteins were detected using enhanced chemiluminescence. […]
Following selection, SYF cells were left untreated or stimulated with Forskolin in the presence or absence of H89 or PP2. Cells were lysed in ice-cold lysis buffer and the lysates analyzed by Western blot for phosphorylation of myc-ERK2 as described above. […]
SYF cells were co-transfected with Flag-Rap1 and either vector, Flag-Src, or Flag-SrcS 17A and stimulated with Forskolin as described in the above examples. Cell lysates were examined for Rap1 activation using the method described in EXAMPLE 1 or analyzed by Western blot to identify Flag-containing proteins. […]

Cb1/C3G with Src = experiment: Co-immunoprecipitation of Src, Cb1 and C3G, Hek293 cells; type: cell-based
Experimental: To examine whether a similar mechanism might underlie signaling from GPCRs, the following methods were used. Hek293 cells were transfected with Flag-tagged SrcWT, SrcS17A, or SrcS17D, using the methods disclosed herein. Cells were treated with 10 μM isoproterenol and equivalent amounts of lysates immunoprecipitated with Flag antibody. The presence of endogenous Cb1 within the eluates was examined by Western blotting. The ability of isoproterenol to induce Rap1-recruitment of B-Raf was blocked by both Cb1-ct and CBR.
Cells were treated with isoproterenol or left untreated and equal amounts of lysates immunoprecipitated with Myc antibody and the presence of endogenous C3G within the eluates examined by Westein blot using the methods disclosed herein.
Equivalent amounts of lysates were immunoprecipitated with Flag antibody and the presence of endogenous C3G within the eluates was examined by Western blots as described herein.

Structure (SMILES) | Effect on association between Raf-1 and Rap1 (Raf-1 and Rap1) | Effect on EGF's or PDGF's activation of ERKs (ERK1/2) | Effect on Forskolin's inhibition of ERKs (ERK1/2) | Rap1 activation by agonist (Rap1; SYF cells) | Rap1 activation by agonist (Rap1; Src++ cells) | Association between C3G and transfected Cb1 (Cb1/C3G with Src)
CC(C)(C)n1nc(-c2ccc(Cl)cc2)c2c(N)ncnc21 [PP2, 4-amino-5-(4-chlorophenyl)-7-(t-butyl)pyazolo[3,4-d]pyrimidine] | blocked | no observable effect | prevented Forskolin's inhibition of ERKs |  |  | 
CC(C)NCC(O)c1ccc(O)c(O)c1 (stereo not drawn) [isoproterenol] |  |  |  | absent | retained | induced an association
